Read-outs that look alike come from different tables or passages of the source.
Columns and labels:
[1] = cited from earlier work
[2] = biological target: T1, ANGIOTENSIN II AT1 receptor (Homo sapiens, UniProt P30556); settings: cited from earlier work
T1 sequence (P30556 1-359): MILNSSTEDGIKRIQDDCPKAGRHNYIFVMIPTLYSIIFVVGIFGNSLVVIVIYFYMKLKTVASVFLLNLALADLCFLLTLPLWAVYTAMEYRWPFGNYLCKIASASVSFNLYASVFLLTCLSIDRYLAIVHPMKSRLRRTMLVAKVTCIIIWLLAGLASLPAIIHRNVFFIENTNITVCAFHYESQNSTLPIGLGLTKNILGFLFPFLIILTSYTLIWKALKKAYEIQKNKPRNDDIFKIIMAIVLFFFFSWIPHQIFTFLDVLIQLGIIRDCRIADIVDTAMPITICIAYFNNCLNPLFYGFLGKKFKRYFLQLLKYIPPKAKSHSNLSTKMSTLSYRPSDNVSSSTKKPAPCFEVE

[3] = tested on: pressor effect of Ang II; experiment: Pressor effect of Ang II in rats after losartan or losartan included in cyclodextrin (gavage); assay type: in vivo; settings: losartan 0.2 mg/Kg, tested 2, 6, 24 and 48 hours after
[4] = tested on: pressor effect of Ang II; experiment: Pressor effect of Ang II in rats after subcutaneous losartan or losartan incorporated in biodegradable polymer (telemetric recording of arterial pressure); assay type: in vivo; settings: losartan 0.7 mg
Experimental: Male rats weighing (330-350 g) instrumented for telemetric recording of arterial pressure (Data Science System) were anesthetized and submitted to the implantation of […] femoral vein. […] Injections of Ang II were made after 2, 8 and 24 hours and then at intervals of 24 hours, for 15 days.

[5] = cited from earlier work; remark: listed apart in the source
[6] = cited from earlier work; remark: listed apart in the source
[7] = cited from earlier work; remark: listed apart in the source

Compound: CCOc1nc2cccc(C(=O)O)c2n1Cc1ccc(-c2ccccc2-c2nnn[nH]2)cc1 [Candesartan]
- bioavailability ([1]; in vivo): about 40%
- half-life ([1]; in vivo): 9 h

Compound: CCCCc1ncc(/C=C(\Cc2cccs2)C(=O)O)n1Cc1ccc(C(=O)O)cc1 [Eprosartan, (E)-a-[[2-butyl-1-[(4-carboxyphenyl)metyl]-1H-imidazol-5-yl]methylene]-2-thiofenepropanoic acid]
- eliminated through the feces ([1]; in vivo): Approximately 90%
- time to peak of maximum concentration ([1]; in vivo): about 2 hours
- binding / affinity for the Ang II AT1 receptor [2]: high affinity

Compound: CCCCC1=NC2(CCCC2)C(=O)N1Cc1ccc(-c2ccccc2-c2nnn[nH]2)cc1 [Irbersartan]
- excreted by the bile ([1]; in vivo): 80%

Compound: CCCCc1nc(Cl)c(CO)n1Cc1ccc(-c2ccccc2-c2nn[nH]n2)cc1 [Losartan]
- duration of blockade of the pressor effect of Ang II [3]: about 8 hours
- duration of blockade of the Ang II effect [4]: about 8 hours
- half-life ([1]; in vivo): about two
- excreted as EXP-3174 ([1]; oral dose): 8%
- excreted with the losartan ([1]; oral dose): 5%
- solubility ([5]; in alcohol): soluble
- solubility ([5]; in common organic solvents, such as acetonitrile and methyl-ethyl-cetone): slightly soluble
- solubility ([5]; in water): soluble

Compound: CCOC(=O)[C@H](C)C[C@@H](C)C(=O)N1c2ccccc2C[C@H]1C(=O)O [Pentopril]
- stability in the human plasma [6]: highly stable

Compound: CCCCc1nc(Cl)c(CC(=O)[O-])n1Cc1ccccc1Cl.[Na+] [S-8307]
- binding / affinity for the Ang II AT1 receptor [2]: weak binding

Compound: CCCCc1nc(Cl)c(CC(=O)[O-])n1Cc1ccccc1[N+](=O)[O-].[Na+] [S-8308]
- binding / affinity for the Ang II AT1 receptor [2]: weak binding

Compound: CCCc1nc2c(C)cc(-c3nc4ccccc4n3C)cc2n1Cc1ccc(-c2ccccc2C(=O)O)cc1 [Telmisartan]
- bioavailability ([1]; in vivo): 45%
- excreted by the bile ([1]; in vivo): 97%

Compound: CCCCC(=O)N(Cc1ccc(-c2ccccc2-c2nnn[nH]2)cc1)[C@H](C(=O)O)C(C)C [Valsartan, 1-oxopentyl-N′[[2′-(1H-tetrazole-5-yl)[1,1′-biphenyl]-4-yl]methyl]-L-vaniline]
- half-life ([1]; in vivo): 9 h
- time to peak of maximum concentration ([1]; in vivo): about 2 hours

Compound: CC[C@H](C)[C@H](NC(=O)[C@H](CCC(N)=O)NC(=O)[C@@H]1CCCN1C(=O)[C@H](CCCNC(=N)N)NC(=O)[C@@H]1CCCN1C(=O)[C@H](Cc1c[nH]c2ccccc12)NC(=O)[C@@H]1CCC(=O)N1)C(=O)N1CCC[C@H]1C(=O)N1CCC[C@H]1C(=O)O [teprotide]
- anti-hypertensive action ([7]; intravenous route): has an anti-hypertensive action
- anti-hypertensive action ([7]; oral route): inactive

Source: US7858597B2, “Preparation of formulations of angiotensin II AT1 receptors antagonists for the treatment of arterial hypertension, other cardiovascular illnesses and its complications” (Universidade Federal De Mimas Gerais - UFMG, priority 2001, dated 2010)
